Assay: Radiolysis / stability of [18F]DCFPyL over time by HPLC with radiodetection (RCP, free 18F, radioactive impurities)
Assay type: physicochemical
Protocol: Those of ordinary skill in the art will be aware of techniques and systems for determining the radiochemical purity of a composition. In some cases, the radiochemical purity is determined using an HPLC associated with a radio-detector. Generally, the radiochemical purity is determined under ambient conditions (e.g., ambient temperature, ambient humidity, ambient light, etc.), such as in samples stored under such conditions.
Stability was assessed using reverse phase HPLC on a C18 column with a phosphate buffer/acetonitrile gradient mobile phase, and the elution profile was monitored using both UV and radiochemical detectors. Samples were analyzed either by direct injection onto the HPLC, dilution and injection or including the addition of tetraethylammonium fluoride (TEAF) into the sample before injection.
Known amounts of free ^18F either alone or spiked with TEAF were injected onto the analytic column and the eluent from the column collected over the course of a chromatogram and assaying the radioactivity using a Capintec. […] Adding TEAF into the analytic samples was incorporated into subsequent studies examining potential radiolysis of [^18F]DCFPyL to overcome some of the limitations of free ^18F quantification.
Analytical HPLC method was used. The method employs UV detection at 264 nm for chemical impurities, and an Eckert & Ziegler model B-FC-1000 gamma detector for radiochemical assays.

[1] = T = 10, 50 mg/mL ascorbic acid pH 5.8, 20% ethanol, 106.5 mCi/mL at EOS
[2] = T = 0.5 hr, 50 mg/mL ascorbic acid pH 5.8 in final product vial, 20% ethanol, 110 mCi/mL at EOS
[3] = T = 0.5 hr, 100 mg/mL ascorbic acid pH 2.0, 256 mCi/mL at EOS
[4] = T = 0.5 hr, 20% ethanol in saline, 52 mCi/mL at EOS
[5] = T = 0.5 hr, 20% ethanol in saline, 65 mCi/mL at EOS
[6] = T = 0.5 hr, 20% ethanol in saline, 85 mCi/mL at EOS
[7] = T = 0.5 hr, control without ascorbic acid, 36% ethanol in saline, 147 mCi/mL at EOS
[8] = T = 1.0 hr, 50 mg/mL ascorbic acid pH 5.8 in final product vial, 20% ethanol, 110 mCi/mL at EOS
[9] = T = 1.0 hr, 100 mg/mL ascorbic acid pH 2.0, 256 mCi/mL at EOS
[10] = T = 1 hr, 20% ethanol in saline, 52 mCi/mL at EOS
[11] = T = 1 hr, 20% ethanol in saline, 65 mCi/mL at EOS
[12] = T = 1 hr, 20% ethanol in saline, 85 mCi/mL at EOS
[13] = T = 1 hr, 100% ethanol, 325 mCi/mL at EOS
[14] = T = 1 hr, control without ascorbic acid, 36% ethanol in saline, 147 mCi/mL at EOS
[15] = T = 1.5 hr (Table 3 prints 1.6 hr), control without ascorbic acid, 36% ethanol in saline, 147 mCi/mL at EOS
[16] = T = 1.5 hr, 50 mg/mL ascorbic acid pH 5.8 in final product vial, 20% ethanol, 110 mCi/mL at EOS
[17] = T = 1.5 hr, 100 mg/mL ascorbic acid pH 2.0, 256 mCi/mL at EOS
[18] = T = 1.5 hr, 20% ethanol in saline, 52 mCi/mL at EOS
[19] = T = 1.5 hr, 20% ethanol in saline, 65 mCi/mL at EOS
[20] = T = 1.5 hr, 20% ethanol in saline, 85 mCi/mL at EOS
[21] = T = 2 hr, 0.5 mg/mL ascorbic acid pH 5.8, 20% ethanol, 105.8 mCi/mL at EOS
[22] = T = 2 hr, 1 mg/mL ascorbic acid pH 5.8, 20% ethanol, 107.0 mCi/mL at EOS
[23] = T = 2 hr, 5 mg/mL ascorbic acid pH 5.8, 20% ethanol, 99.0 mCi/mL at EOS
[24] = T = 2 hr, 20 mg/mL sodium citrate, 20% ethanol, 104.8 mCi/mL at EOS
[25] = T = 2 hr, 50 mg/mL ascorbic acid pH 5.8, 20% ethanol, 139.7 mCi/mL at EOS
[26] = T = 2.0 hr, 50 mg/mL ascorbic acid pH 5.8 in final product vial, 20% ethanol, 110 mCi/mL at EOS
[27] = T = 2.0 hr, 100 mg/mL ascorbic acid pH 2.0, 256 mCi/mL at EOS
[28] = T = 2 hr, 20% ethanol in saline, 52 mCi/mL at EOS
[29] = T = 2 hr, 20% ethanol in saline, 65 mCi/mL at EOS
[30] = T = 2 hr, 20% ethanol in saline, 85 mCi/mL at EOS
[31] = T = 2 hr, 100% ethanol, 325 mCi/mL at EOS
[32] = T = 2 hr, control without ascorbic acid, 36% ethanol in saline, 147 mCi/mL at EOS
[33] = T = 2.5 hr, 50 mg/mL ascorbic acid pH 5.8 in final product vial, 20% ethanol, 110 mCi/mL at EOS

In the case of `O=C(O)CC[C@H](NC(=O)N[C@@H](CCCCNC(=O)c1ccc([18F])nc1)C(=O)O)C(=O)O` [Lot 18F-DCFPyL, 2-(3-{1-carboxy-5-[(6-[18F]fluoro-pyridine-3-carbonyl)-amino]-pentyl}ureido)-pentanedioic acid], the “18F-DCFPyL (% RCP)” value [1] is reported as 99.43%, the “Free F-18” value [1] is reported as 0.57% and the “18F-DCFPyL (RCP)” value [2] is reported as 99.69%. The “RT 5.0 radioactive impurity” value [2] was 0.31%, the “18F-DCFPyL (RCP)” value [3] was 99.60% and the “Free 18F” value [3] was 0.40%. The “18F-DCFPyL (RCP)” value [4] was 99.18%, the “Free F-18” value [4] was 0.36% and the “RT 5.0 radioactive impurity” value [4] was 0.47%. For the same molecule, the “18F-DCFPyL (RCP)” value [5] was 96.43%, the “Free F-18” value [5] was 3.17% and the “RT 5.0 radioactive impurity” value [5] was 0.39%. The “18F-DCFPyL (RCP)” value [6] was 96.74%, the “Free F-18” value [6] was 2.92% and the “RT 5.0 radioactive impurity” value [6] was 0.34%. For the same molecule, the “18F-DCFPyL (RCP)” value [7] was 90.65%, the “Free F-18” value [7] was 7.73% and the “RT 5.0 radioactive impurity” value [7] was 0.65%. For the same molecule, the “RT 5.9 radioactive impurity” value [7] was 0.97%, the “18F-DCFPyL (RCP)” value [8] was 96.73% and the “RT 5.0 radioactive impurity” value [8] was 0.27%. For the same molecule, the “18F-DCFPyL (RCP)” value [9] was 98.68%, the “Free 18F” value [9] was 0.31% and the “RT 5.0 radioactive impurity” value [9] was 0.35%. For the same molecule, the “RT 12.0 radioactive impurity” value [9] was 0.35%, the “RT 12.2 radioactive impurity” value [9] was 0.31% and the “18F-DCFPyL (RCP)” value [10] was 98.93%. For the same molecule, the “Free F-18” value [10] was 0.56%, the “RT 5.0 radioactive impurity” value [10] was 0.51% and the “18F-DCFPyL (RCP)” value [11] was 96.15%. For the same molecule, the “Free F-18” value [11] was 3.22%, the “RT 5.0 radioactive impurity” value [11] was 0.36% and the “RT 5.9 radioactive impurity” value [11] was 0.28%. The “18F-DCFPyL (RCP)” value [12] was 96.64%, the “Free F-18” value [12] was 2.98% and the “RT 5.0 radioactive impurity” value [12] was 0.38%. For the same molecule, the “18F-DCFPyL (RCP)” value [13] was 96.66%, the “Free F-18” value [13] was 3.34% and the “18F-DCFPyL (RCP)” value [14] was 90.71%. The “Free F-18” value [14] was 7.69%, the “RT 5.0 radioactive impurity” value [14] was 0.48% and the “RT 5.9 radioactive impurity” value [14] was 1.11%. The “18F-DCFPyL (RCP)” value [15] was 89.59%, the “Free F-18” value [15] was 8.78% and the “RT 5.0 radioactive impurity” value [15] was 0.61%. The “RT 5.9 radioactive impurity” value [15] was 1.03%, the “18F-DCFPyL (RCP)” value [16] was 99.61% and the “RT 5.0 radioactive impurity” value [16] was 0.39%. The “RT 5.9 radioactive impurity” value [16] was 0.31%, the “18F-DCFPyL (RCP)” value [17] was 98.58% and the “Free 18F” value [17] was 0.31%. The “RT 5.0 radioactive impurity” value [17] was 0.28%, the “RT 12.0 radioactive impurity” value [17] was 0.46% and the “RT 12.2 radioactive impurity” value [17] was 0.37%. For the same molecule, the “18F-DCFPyL (RCP)” value [18] was 98.70%, the “Free F-18” value [18] was 0.80% and the “RT 5.0 radioactive impurity” value [18] was 0.50%. The “18F-DCFPyL (RCP)” value [19] was 95.78%, the “Free F-18” value [19] was 3.55% and the “RT 5.0 radioactive impurity” value [19] was 0.38%. The “RT 5.9 radioactive impurity” value [19] was 0.29%, the “18F-DCFPyL (RCP)” value [20] was 95.06% and the “Free F-18” value [20] was 4.22%. For the same molecule, the “RT 5.0 radioactive impurity” value [20] was 0.41%, the “RT 5.9 radioactive impurity” value [20] was 0.31% and the “18F-DCFPyL (% RCP)” value [21] was 98.99%. The “Free F-18” value [21] was 1.01%, the “18F-DCFPyL (% RCP)” value [22] was 98.88% and the “Free F-18” value [22] was 1.12%. The “Free F-18” value (T = 2 hr, 1 mg/mL sodium ascorbate, 20% ethanol, 111.5 mCi/mL at EOS) was 1.89%, the “18F-DCFPyL (% RCP)” value [23] was 99.45% and the “Free F-18” value [23] was 0.55%. The “Free F-18” value (T = 2 hr, 5 mg/mL sodium ascorbate, 20% ethanol, 114.6 mCi/mL at EOS) was 0.89%, the “Free F-18” value [24] was 18.24% and the “RT 3.4 radioactive impurity” value [24] was 0.30%. The “RT 3.7 radioactive impurity” value [24] was 0.31%, the “18F-DCFPyL (% RCP)” value [25] was 100.00% and the “Free F-18” value [25] was 0.00%. For the same molecule, the “RT 4.8 radioactive impurity” value (T = 2 hr, 50 mg/mL ascorbic acid pH 5.8, 20% ethanol, 139.7 mCi/mL at EOS, MPA = 0.25% of main peak) was “<MPA”, the “18F-DCFPyL (RCP)” value [26] was 99.67% and the “RT 5.0 radioactive impurity” value [26] was 0.33%. The “RT 5.9 radioactive impurity” value [26] was 0.24%, the “18F-DCFPyL (RCP)” value [27] was 98.35% and the “Free 18F” value [27] was 0.31%. The “RT 5.0 radioactive impurity” value [27] was 0.35%, the “RT 12.0 radioactive impurity” value [27] was 0.52% and the “RT 12.2 radioactive impurity” value [27] was 0.47%. The “18F-DCFPyL (RCP)” value [28] was 98.62%, the “Free F-18” value [28] was 0.91% and the “RT 5.0 radioactive impurity” value [28] was 0.47%. The “18F-DCFPyL (RCP)” value [29] was 95.91%, the “Free F-18” value [29] was 3.78% and the “RT 5.0 radioactive impurity” value [29] was 0.31%. For the same molecule, the “18F-DCFPyL (RCP)” value [30] was 95.37%, the “Free F-18” value [30] was 4.00% and the “RT 5.0 radioactive impurity” value [30] was 0.39%. The “RT 5.9 radioactive impurity” value [30] was 0.24%, the “18F-DCFPyL (RCP)” value [31] was 96.38% and the “Free F-18” value [31] was 3.62%. For the same molecule, the “18F-DCFPyL (RCP)” value [32] was 89.50%, the “Free F-18” value [32] was 8.67% and the “RT 5.0 radioactive impurity” value [32] was 0.77%. For the same molecule, the “RT 5.9 radioactive impurity” value [32] was 1.05%, the “18F-DCFPyL (RCP)” value [33] was 99.63% and the “RT 5.0 radioactive impurity” value [33] was 0.37%. The “RT 5.9 radioactive impurity” value [33] was 0.35%.

— patent US20250019350A1, “SYNTHESIS OF THE PROSTATE SPECIFIC MEMBRANE ANTIGEN (PSMA) RADIOLABELED INHIBITOR [18F]DCFPYL” (Progenics Pharmaceuticals, Inc, priority 2023, published 2025)
